Paper PMC12436592 (Nature Communications, 2025)

Experiments:
hP2X2R = tested on: T1, hP2X2R; assay: Calcium influx assay, 1321N1 astrocytoma cells, ATP EC80; type: cell-based, human; details: 10 μM antagonist, ATP 1000 nM
T1 construct: expressed in transfected cells
From the text: (§1) . For 1321N1 astrocytoma cells stably expressing the human, rat, or mouse P2X7Rs, or hP2X2Rs or hP2X4Rs, the fluorescent Ca^2+-chelating dye Fluo-4 acetoxymethyl ester (Fluo-4 AM, Thermo Fisher Scientific, Dreieich, Germany) was used. For 1321N1 astrocytoma cell lines recombinantly expressing the hP2X1Rs or hP2X3Rs, the FLIPR® Calcium 5 Assay Kit (Molecular Devices, San José, CA, USA) was employed. Human, rat, and mouse P2X7Rs as well as hP2X1Rs, hP2X2Rs, hP2X3Rs, and hP2X4Rs were recombinantly expressed in 1321N1 astrocytoma cells using a retroviral expression system[72]–[74].
(§2) On the first day, 45,000 cells per well (30,000 cells for the human P2X3 receptor-expressing cells) were seeded into a 96-well polystyrene microplate with a black, flat bottom in a final volume of 200 µL. After overnight incubation at 37 °C and 10% CO2 (5% CO2 for the human P2X3R-expressing cell line), the medium was removed by inverting the plate, and the cells were loaded with dye solution. Hanks’ balanced salt solution (HBSS, Thermo Fisher Scientific, Dreieich, Germany) was used as the assay buffer for human P2X1R, P2X2R, P2X3R, and P2X4R. For the P2X7Rs, a different assay buffer was used: 150 mM sodium-glutamate, 5 mM KCl, 0.5 mM CaCl2, 0.1 mM MgCl2, 10 mM D-glucose, 25 mM 4-(2-hydroxyethyl)-1-piperazineethanesulfonic acid (HEPES), pH 7.4. The dye solutions were freshly prepared. The Fluo-4 AM solution contained 3 µM of Fluo-4 AM in assay buffer and 1% of the non-ionic detergent Pluronic F-127® (Sigma-Aldrich, Taufkirchen, Germany). The Calcium 5 dye, used for hP2X1Rs and hP2X3Rs, was prepared in HBSS buffer. Cells were loaded with Fluo-4 AM and incubated for 1 h at room temperature with gentle shaking (100 rpm), while those loaded with the Calcium 5 dye were incubated for 1 h at 37 °C. After incubation, the dye solution was carefully removed from the plate, and buffer was added to the cells for the evaluation of agonists. […] The agonist solution was prepared in a 96-well transparent plate, obtaining the respective EC80 values. As a control, assay buffer without the test compound was used. After 30 min of incubation with antagonist, the plates were measured using a fluorescence imaging plate reader NOVOstar (BMG Labtech GmbH, Offenburg, Germany) at an excitation wavelength of 485 nm and an emission wavelength of 520 nm, for 30 s at 0.4 s intervals. Calcium influx measurements were then initiated by automatic addition of 20 µL of agonist solution by the plate reader’s pipetting device. Data were analyzed using Microsoft Excel and GraphPad Prism (Version 8.0, San Diego, CA, USA). EC80 and IC50 values were calculated using nonlinear regression with a sigmoidal dose-response equation.

hP2X4R = tested on: T2, hP2X4R; assay: as above; type: cell-based, human; details: 10 μM antagonist, ATP 300 nM
T2 construct: expressed in transfected cells
From the text: as §1, §2

SMILES: CC12CC3CC1(C)C1(C)CC3(C(=O)NNc3ccccc3Cl)CC21C [UB-MBX-46]
- % inhibition ± SD at 10 μM, hP2X2R (hP2X2R): 15 ± 9%
- % inhibition ± SD at 10 μM, hP2X4R (hP2X4R): 41 ± 19%

SMILES: O=C(NNc1ccccc1Cl)C12CC3CC(CC(C3)C1)C2 [UB-ALT-P30, reference compound]
- % inhibition ± SD at 10 μM, hP2X2R (hP2X2R): 29 ± 7%
- % inhibition ± SD at 10 μM, hP2X4R (hP2X4R): 44 ± 14%
